Measurements reported in patent US9278942B2, “Non-steroidal compounds as androgen receptor modulators” (FLX Discoveries Oy, priority 2011, dated 2016).
Read-outs that look alike come from different tables or passages of the source.

Legend:
[1] = molecular target: T1, human AR (Homo sapiens, UniProt P10275); assay: Competitive AR binding assay against [3H]-R1881 in transiently transfected COS-1 cells; conditions: compound 13.4 μM, [3H]-R1881 1.34 nM, complete inhibition equals 100%, read-out: Inhibition of [3H]-R1881 binding at 1.34 nM ± S.D.
T1 construct: expressed in transfected cells; host or cells: COS-1
T1 sequence (P10275 1-920): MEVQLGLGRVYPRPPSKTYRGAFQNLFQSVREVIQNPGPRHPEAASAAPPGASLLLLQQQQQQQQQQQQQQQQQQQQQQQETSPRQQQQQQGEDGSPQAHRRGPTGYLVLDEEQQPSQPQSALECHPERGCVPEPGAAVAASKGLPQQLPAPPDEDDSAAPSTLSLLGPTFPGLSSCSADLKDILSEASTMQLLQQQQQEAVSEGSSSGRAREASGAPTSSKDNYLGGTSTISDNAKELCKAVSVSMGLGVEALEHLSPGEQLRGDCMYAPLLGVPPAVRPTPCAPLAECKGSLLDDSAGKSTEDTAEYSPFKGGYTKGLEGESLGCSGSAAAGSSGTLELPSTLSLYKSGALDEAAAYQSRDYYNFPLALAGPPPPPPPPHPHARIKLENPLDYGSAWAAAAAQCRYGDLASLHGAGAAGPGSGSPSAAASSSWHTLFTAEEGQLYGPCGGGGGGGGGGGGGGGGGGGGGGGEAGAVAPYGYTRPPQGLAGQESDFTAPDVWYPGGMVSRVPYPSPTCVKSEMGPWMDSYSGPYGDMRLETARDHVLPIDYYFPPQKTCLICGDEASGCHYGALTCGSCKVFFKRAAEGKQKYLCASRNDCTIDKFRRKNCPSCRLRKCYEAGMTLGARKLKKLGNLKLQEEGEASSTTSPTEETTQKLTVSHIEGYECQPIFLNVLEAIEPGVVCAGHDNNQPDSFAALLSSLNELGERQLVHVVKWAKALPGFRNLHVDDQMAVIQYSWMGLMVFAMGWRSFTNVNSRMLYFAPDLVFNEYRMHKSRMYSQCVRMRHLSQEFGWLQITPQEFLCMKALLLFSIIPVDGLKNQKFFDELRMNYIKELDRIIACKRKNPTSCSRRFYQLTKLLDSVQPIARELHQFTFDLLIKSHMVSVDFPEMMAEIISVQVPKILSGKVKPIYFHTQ
How it was run: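 COS-1 cells transfected 24 h with human AR vector, then after 36 h exposed 2 h at 37° C to compound at 10000-fold molar excess over 1.34 nM [3H]-R1881. Cell-bound radioactivity counted in triplicate; result given as % inhibition of labelled R1881 binding.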

[2] = molecular target: T1, human AR; assay: AR antagonism assay: inhibition of transcriptional activation of AR (Probasin-luc reporter, COS-1 cells); assay type: cell-based; conditions: compound 10.0 μM; relative luciferase response: 100% for testosterone (no antiandrogenic effect), 0% for complete antagonism
How it was run: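 COS-1 cells transfected 24 h with human AR vector, Probasin-luc reporter and β-gal control, then exposed 18 h at 37 °C to 10 μM compound plus 100 nM testosterone. Luciferase read-out normalised to β-galactosidase activity and protein content.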

- inhibition at 13.4 µM ([1]; Table 1): 91.1 ± 2.2%
- inhibition at 13.4 µM ([1]; Table 2): 94.8 ± 0.8%
- inhibition at 13.4 µM ([1]; Table 3): 95.2 ± 2.9%
- AR antagonism against 100 nM testosterone ± S.D. [2]: 13.0 ± 1.1%
SMILES: CC(C)(O)C(=O)Nc1ccc([N+](=O)[O-])c(C(F)(F)F)c1 [Hydroxyflutamide, reference compound]
